# Test results published in publication PMC11208024, “Cholestenoic acid as endogenous epigenetic regulator decreases hepatocyte lipid accumulation in vitro and in vivo” (American Journal of Physiology - Gastrointestinal and Liver …, 2023).
# Assays:
# Assay type in all cases: biochemical
# DNMT3a = DNMT3a (Homo sapiens, UniProt Q9Y6K1); test: radiometric methyltransferase assay with recombinant enzyme, Lambda DNA substrate and 3H-SAM
# [1] = target: T1, DNA methyltransferases 1 (DNMT1) (Homo sapiens, UniProt P26358); test: radiometric methyltransferase assay with recombinant enzyme, poly(dI-dC) and 3H-SAM; activation at low, inhibition at higher concentration (IC50 […])
# DNMT3b = DNMT3b (Homo sapiens, UniProt Q9UBC3); test: radiometric methyltransferase assay with recombinant enzyme, Lambda DNA substrate and 3H-SAM
# [2] = target: T1, DNA methyltransferases 1 (DNMT1); test: positive control in radiometric DNMT1 assay; […] inhibition at […]
# T1 sequence (P26358 whole entry): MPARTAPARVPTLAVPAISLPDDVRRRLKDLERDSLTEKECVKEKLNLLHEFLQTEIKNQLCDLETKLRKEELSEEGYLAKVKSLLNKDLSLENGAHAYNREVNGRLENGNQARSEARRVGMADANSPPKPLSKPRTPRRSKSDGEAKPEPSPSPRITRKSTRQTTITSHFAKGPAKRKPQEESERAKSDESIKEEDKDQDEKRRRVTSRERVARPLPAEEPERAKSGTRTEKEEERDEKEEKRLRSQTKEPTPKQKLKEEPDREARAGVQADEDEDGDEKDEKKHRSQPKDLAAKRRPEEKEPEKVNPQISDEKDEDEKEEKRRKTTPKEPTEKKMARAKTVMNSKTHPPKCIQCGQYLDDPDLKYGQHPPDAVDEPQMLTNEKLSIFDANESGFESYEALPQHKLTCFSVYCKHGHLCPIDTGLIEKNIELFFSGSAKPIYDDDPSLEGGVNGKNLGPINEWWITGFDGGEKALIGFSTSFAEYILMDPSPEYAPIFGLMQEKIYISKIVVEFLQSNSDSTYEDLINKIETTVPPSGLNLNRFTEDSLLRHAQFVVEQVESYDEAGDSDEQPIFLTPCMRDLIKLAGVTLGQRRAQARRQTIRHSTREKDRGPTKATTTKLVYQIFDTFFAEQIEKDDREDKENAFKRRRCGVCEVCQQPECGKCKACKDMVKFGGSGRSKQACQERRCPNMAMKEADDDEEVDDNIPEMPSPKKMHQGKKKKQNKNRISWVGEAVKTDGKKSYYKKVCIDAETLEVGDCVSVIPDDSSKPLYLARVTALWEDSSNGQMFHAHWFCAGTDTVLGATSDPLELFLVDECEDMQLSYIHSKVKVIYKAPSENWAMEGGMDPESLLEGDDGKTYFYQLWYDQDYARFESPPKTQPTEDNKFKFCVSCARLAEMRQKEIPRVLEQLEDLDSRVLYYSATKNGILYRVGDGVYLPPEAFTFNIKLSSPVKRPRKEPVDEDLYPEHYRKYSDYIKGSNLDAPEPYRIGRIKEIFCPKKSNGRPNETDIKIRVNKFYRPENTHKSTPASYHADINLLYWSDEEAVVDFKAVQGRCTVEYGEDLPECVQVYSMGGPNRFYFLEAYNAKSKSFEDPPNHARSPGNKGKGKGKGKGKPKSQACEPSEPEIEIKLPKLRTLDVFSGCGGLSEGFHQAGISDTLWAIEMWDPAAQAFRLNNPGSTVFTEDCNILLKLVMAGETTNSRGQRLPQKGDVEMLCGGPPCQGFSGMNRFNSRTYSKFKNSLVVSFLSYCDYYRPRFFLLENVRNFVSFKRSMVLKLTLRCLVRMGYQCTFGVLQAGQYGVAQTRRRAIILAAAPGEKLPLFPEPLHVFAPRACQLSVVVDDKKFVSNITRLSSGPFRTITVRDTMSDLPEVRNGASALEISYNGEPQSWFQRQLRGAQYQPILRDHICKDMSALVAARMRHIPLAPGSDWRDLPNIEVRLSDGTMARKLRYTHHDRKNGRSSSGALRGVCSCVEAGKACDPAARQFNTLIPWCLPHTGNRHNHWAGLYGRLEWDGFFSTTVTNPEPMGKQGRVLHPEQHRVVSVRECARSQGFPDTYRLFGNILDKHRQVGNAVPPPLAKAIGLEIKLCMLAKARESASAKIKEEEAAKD
# Chain of DNMT3a (Q9Y6K1 whole entry, looked up): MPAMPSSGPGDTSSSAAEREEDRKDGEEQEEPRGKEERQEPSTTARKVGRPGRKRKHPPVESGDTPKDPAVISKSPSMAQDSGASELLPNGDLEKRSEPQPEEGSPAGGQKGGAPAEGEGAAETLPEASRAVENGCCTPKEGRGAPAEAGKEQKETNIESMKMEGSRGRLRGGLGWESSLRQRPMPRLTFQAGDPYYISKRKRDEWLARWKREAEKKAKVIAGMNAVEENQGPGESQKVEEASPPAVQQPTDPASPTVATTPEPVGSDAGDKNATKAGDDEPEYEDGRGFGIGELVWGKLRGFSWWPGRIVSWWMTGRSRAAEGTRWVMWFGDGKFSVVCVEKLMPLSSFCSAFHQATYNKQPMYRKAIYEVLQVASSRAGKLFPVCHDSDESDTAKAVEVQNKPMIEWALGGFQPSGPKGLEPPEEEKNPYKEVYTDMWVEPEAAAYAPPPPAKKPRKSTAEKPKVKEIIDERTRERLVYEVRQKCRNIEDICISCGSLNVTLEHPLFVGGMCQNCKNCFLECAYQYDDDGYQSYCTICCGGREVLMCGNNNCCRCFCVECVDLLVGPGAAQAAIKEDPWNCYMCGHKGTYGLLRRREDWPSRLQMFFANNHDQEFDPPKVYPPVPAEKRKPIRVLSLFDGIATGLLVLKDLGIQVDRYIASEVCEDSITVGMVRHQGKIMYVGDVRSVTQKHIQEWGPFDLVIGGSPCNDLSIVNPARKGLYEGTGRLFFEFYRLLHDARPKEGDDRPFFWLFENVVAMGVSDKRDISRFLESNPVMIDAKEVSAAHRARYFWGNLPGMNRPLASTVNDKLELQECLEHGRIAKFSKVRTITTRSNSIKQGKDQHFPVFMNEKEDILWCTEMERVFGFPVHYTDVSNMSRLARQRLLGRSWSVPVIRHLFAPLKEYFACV
Compound,IC50 (DNMT3a) [µM],EC50 [1] [µM],IC50 (DNMT3b) [µM],inhibition at 1 µM [2] [%]
"C[C@H](CCC[C@@H](C)[C@H]1CC[C@H]2[C@@H]3CC=C4C[C@@H](O)CC[C@]4(C)[C@H]3CC[C@]12C)C(=O)O [CA, Cholestenoic acid]",8.41,1.99,4.89,–
Nc1ncnc2c1ncn2[C@@H]1O[C@H](CSCC[C@H](N)C(=O)O)[C@@H](O)[C@H]1O [S-adenosyl homocysteine],–,–,–,95
